Data from patent US12696901B2, “Pesticidally active heterocyclic derivatives with sulfur containing substituents” (SYNGENTA CROP PROTECTION AG, priority 2020, dated 2026).

Experiments:
Type in all cases: in vivo
[1] = tested on: Diabrotica balteata (Corn Root Worm); assay: Activity against Diabrotica balteata (corn root worm), sprayed maize sprouts on agar; details: 96 h, application rate 200 ppm, L2 larvae, 4 days after infestation, read-out: effect in at least one of the two categories (mortality or growth inhibition)
Experimental: Example B2: Activity Against Diabrotica balteata (Corn Root Worm)
Maize sprouts placed onto an agar layer in 24-well microtiter plates were treated with aqueous test solutions prepared from 10,000 ppm DMSO stock solutions by spraying. After drying, the plates were infested with L2 larvae (6 to 10 per well). The samples were assessed for mortality and growth inhibition in comparison to untreated samples 4 days after infestation.

[2] = tested on: Tetranychus urticae (Two-Spotted Spider Mite); assay: Activity against Tetranychus urticae (two-spotted spider mite), sprayed bean leaf discs; details: foliar, 192 h, application rate 200 ppm, mixed population (mobile stages), 8 days after infestation
Experimental: Example B9: Activity Against Tetranychus urticae (Two-Spotted Spider Mite)
Bean leaf discs on agar in 24-well microtiter plates were sprayed with aqueous test solutions prepared from 10,000 ppm DMSO stock solutions. After drying the leaf discs were infested with a mite population of mixed ages. The samples were assessed for mortality on mixed population (mobile stages) 8 days after infestation.

[3] = tested on: Chilo suppressalis (Striped Rice Stemborer); assay: Activity against Chilo suppressalis (striped rice stemborer), treated artificial diet; details: 144 h, application rate 200 ppm, L2 larvae, 6 days after infestation
In short: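 Artificial diet treated with aqueous test solutions made from 10,000 ppm DMSO stocks, dried, then infested with L2 larvae, 6-8 per well. Mortality, anti-feeding effect and growth inhibition scored versus untreated samples 6 days after infestation; control counted when any one category exceeds the untreated sample.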

[4] = tested on: Myzus persicae (Green Peach Aphid); assay: Activity against Myzus persicae (green peach aphid), feeding/contact activity; details: 144 h, application rate 200 ppm, mixed ages, 6 days after infestation
Experimental: Example B6: Activity Against Myzus persicae (Green Peach Aphid) Feeding/Contact Activity
Sunflower leaf discs were placed onto agar in a 24-well microtiter plate and sprayed with aqueous test solutions prepared from 10,000 ppm DMSO stock solutions. After drying, the leaf discs were infested with an aphid population of mixed ages. The samples were assessed for mortality 6 days after infestation.

[5] = tested on: Diabrotica balteata (Corn Root Worm); assay: Activity against Diabrotica balteata (corn root worm), corn seedlings on filter paper in cups; details: 120 h, application rate 3 ppm, L2 larva, 5 days after treatment, read-out: effect in at least one of the two categories (mortality or growth inhibition)
Experimental: Example B12: Activity Against Diabrotica Balteata (Corn Root Worm)
Three corn seedlings were placed on wetted filter paper in plastic cups, and 3 ml of diluted test solutions were pipetted onto them. The cups were infested with 10 L2 larva and checked for mortality and growth regulation 5 days after treatment.

[6] = tested on: Plutella xylostella (Diamond Back Moth); assay: Activity against Plutella xylostella (diamond back moth), treated artificial diet; details: 192 h, application rate 200 ppm, eggs, 8 days after infestation, read-out: effect in at least one of the two categories (mortality or growth inhibition)
In short: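 Artificial diet treated with aqueous test solutions made from 10,000 ppm DMSO stocks, dried, then infested with Plutella eggs. Mortality and growth inhibition scored against untreated samples 8 days after infestation.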

[7] = tested on: Carpocapsa (Cydia) Pomonella (Codling Moth); assay: Activity against Carpocapsa (Cydia) pomonella (codling moth), sprayed diet cubes; details: 336 h, application rate 12.5 ppm, L1 larvae, 14 days after infestation, read-out: effect in at least one of the two categories (mortality or growth inhibition)
In short: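 Paraffin-coated diet cubes were sprayed with test solutions at 12.5 ppm, dried, and infested with one L1 larva each (10 replicates). After incubation at 26–27 °C, mortality and growth inhibition were scored 14 days after infestation.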

[8] = tested on: Bemisia tabaci (Cotton White Fly); assay: Activity against Bemisia tabaci (cotton white fly), sprayed cotton leaf discs; details: foliar, 144 h, application rate 200 ppm, adult white flies, 6 days after incubation
Experimental: Example B1: Activity Against Bemisia tabaci (Cotton White Fly)
Cotton leaf discs were placed on agar in 24-well microtiter plates and sprayed with aqueous test solutions prepared from 10,000 ppm DMSO stock solutions. After drying the leaf discs were infested with adult white flies. The samples were checked for mortality 6 days after incubation.

[9] = tested on: Frankliniella occidentalis (Western Flower Thrips); assay: Activity against Frankliniella occidentalis (western flower thrips), sprayed sunflower leaf discs; details: foliar, 168 h, application rate 200 ppm, population of mixed ages, 7 days after infestation
Experimental: Example B4: Activity Against Frankliniella occidentalis (Western Flower Thrips)
Sunflower leaf discs were placed on agar in 24-well microtiter plates and sprayed with aqueous test solutions prepared from 10,000 ppm DMSO stock solutions. After drying the leaf discs were infested with a Frankliniella population of mixed ages. The samples were assessed for mortality 7 days after infestation.

[10] = tested on: Spodoptera littoralis (Egyptian Cotton Leaf Worm); assay: Activity against Spodoptera littoralis (Egyptian cotton leaf worm), sprayed cotton leaf discs; details: foliar, 72 h, application rate 200 ppm, L1 larvae, 3 days after infestation
In short: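 Leaf discs on agar were sprayed with aqueous solutions prepared from 10,000 ppm DMSO stock, dried, then infested with five L1 larvae. Mortality, anti-feeding and growth inhibition were scored against untreated discs 3 days after infestation. Control was recorded when any one category exceeded the untreated sample.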

[11] = tested on: Euschistus heros (Neotropical Brown Stink Bug); assay: Activity against Euschistus heros (neotropical brown stink bug), sprayed soybean leaves; details: 120 h, application rate 200 ppm, N2 nymphs, 5 days after infestation, read-out: effect in at least one of the two categories (mortality or growth inhibition)
Experimental: Example B3: Activity Against Euschistus heros (Neotropical Brown Stink Bug)
Soybean leaves on agar in 24-well microtiter plates were sprayed with aqueous test solutions prepared from 10,000 ppm DMSO stock solutions. After drying the leaves were infested with N2 nymphs. The samples were assessed for mortality and growth inhibition in comparison to untreated samples 5 days after infestation.

[12] = tested on: Myzus persicae (Green Peach Aphid); assay: Activity against Myzus persicae (green peach aphid), systemic activity; details: 144 h, test rate 24 ppm, roots of pea seedlings in test solution, 6 days
Experimental: Example B8: Activity Against Myzus persicae (Green Peach Aphid) Systemic Activity
Roots of pea seedlings infested with an aphid population of mixed ages were placed directly into aqueous test solutions prepared from 10,000 ppm DMSO stock solutions. The samples were assessed for mortality 6 days after placing seedlings into test solutions.

CCS(=O)(=O)c1c(N2Cc3ncc(C(F)(F)F)cc3C2=O)nc2ccc(OC(F)F)cn12 [Compound P10, 6-[6-(difluoromethoxy)-3-ethylsulfonyl-imidazo[1,2-a]pyridin-2-yl]-3-(trifluoromethyl)-7H-pyrrolo[3,4-b]pyridin-5-one]
≥ 80%: percent effect (mortality or growth inhibition) at 200 ppm [1] | mortality at 200 ppm [2] | percent control (mortality, anti-feedant effect or growth inhibition) at 200 ppm [3] | mortality at 200 ppm [4] | percent effect (mortality or growth inhibition) at 3 ppm [5] | percent effect (mortality or growth inhibition) at 200 ppm [6] | percent effect (mortality or growth inhibition) at 12.5 ppm [7] | mortality at 200 ppm [8] | mortality at 200 ppm [9] | percent control (mortality, anti-feedant effect or growth inhibition) at 200 ppm [10] | percent effect (mortality or growth inhibition) at 200 ppm [11]

CCS(=O)(=O)c1c(N2Cc3ncc(C(F)(F)F)cc3C2=O)nc2cc(OC)ccn12 [Compound P13, 6-(3-ethylsulfonyl-7-methoxy-imidazo [1,2-a]pyridin-2-yl)-3-(trifluoromethyl)-7H-pyrrolo[3,4-b] pyridin-5-one]
≥ 80%: percent effect (mortality or growth inhibition) at 200 ppm [1] | mortality at 200 ppm [4] | percent effect (mortality or growth inhibition) at 200 ppm [6] | mortality at 24 ppm [12] | percent control (mortality, anti-feedant effect or growth inhibition) at 200 ppm [10]

CCS(=O)(=O)c1c(N2Cc3ccc(OC(F)(F)F)cc3C2=O)nc2ccc(C3(C#N)CC3)cn12 [Compound P14, 1-[3-ethylsulfonyl-2-[1-oxo-6-(trifluoromethoxy)isoindolin-2-yl]imidazo[1,2-a]pyridin-6-yl] cyclopropane-carbonitrile]
≥ 80%: percent effect (mortality or growth inhibition) at 200 ppm [1] | mortality at 200 ppm [2] | mortality at 200 ppm [4] | percent effect (mortality or growth inhibition) at 3 ppm [5] | percent effect (mortality or growth inhibition) at 200 ppm [6] | percent effect (mortality or growth inhibition) at 12.5 ppm [7] | mortality at 200 ppm [8] | mortality at 200 ppm [9] | percent control (mortality, anti-feedant effect or growth inhibition) at 200 ppm [10] | percent effect (mortality or growth inhibition) at 200 ppm [11]

CCS(=O)(=O)c1c(N2Cc3ncc(C(F)(F)F)cc3C2=O)nc2ccc(C3(C#N)CC3)cn12 [Compound P15, 1-[3-ethylsulfonyl-2-[5-oxo-3-(trifluoromethyl)-7H-pyrrolo[3,4-b]pyridin-6-yl]imidazo [1,2-a]pyridin-6-yl] cyclopropane-carbonitrile]
≥ 80%: percent effect (mortality or growth inhibition) at 200 ppm [1] | mortality at 200 ppm [2] | mortality at 200 ppm [4] | percent effect (mortality or growth inhibition) at 3 ppm [5] | percent effect (mortality or growth inhibition) at 200 ppm [6] | percent effect (mortality or growth inhibition) at 12.5 ppm [7] | mortality at 200 ppm [8] | mortality at 200 ppm [9] | percent control (mortality, anti-feedant effect or growth inhibition) at 200 ppm [10] | percent effect (mortality or growth inhibition) at 200 ppm [11]

CCS(=O)(=O)c1c(N2Cc3ccc(C(F)(F)F)cc3C2=O)nc2ccc(C3(C#N)CC3)cn12 [Compound P16, 1-[3-ethylsulfonyl-2-[1-oxo-6-(trifluoromethyl)isoindolin-2-yl]imidazo[1,2-a]pyridin-6-yl] cyclopropane-carbonitrile]
≥ 80%: percent effect (mortality or growth inhibition) at 200 ppm [1] | mortality at 200 ppm [2] | mortality at 200 ppm [4] | percent effect (mortality or growth inhibition) at 3 ppm [5] | percent effect (mortality or growth inhibition) at 200 ppm [6] | percent effect (mortality or growth inhibition) at 12.5 ppm [7] | mortality at 200 ppm [8] | percent control (mortality, anti-feedant effect or growth inhibition) at 200 ppm [10] | percent effect (mortality or growth inhibition) at 200 ppm [11]

CCS(=O)(=O)c1c(N2Cc3ccc(OC(F)(F)F)cc3C2=O)nc2ccc(C(C)(F)F)cn12 [Compound P17, 2-[6-(1,1-difluoroethyl)-3-ethylsulfonyl-imidazo[1,2-a]pyridin-2-yl]-6-(trifluoromethoxy) isoindolin-1-one]
≥ 80%: percent effect (mortality or growth inhibition) at 200 ppm [1] | mortality at 200 ppm [2] | percent control (mortality, anti-feedant effect or growth inhibition) at 200 ppm [3] | mortality at 200 ppm [4] | percent effect (mortality or growth inhibition) at 3 ppm [5] | percent effect (mortality or growth inhibition) at 200 ppm [6] | percent effect (mortality or growth inhibition) at 12.5 ppm [7] | mortality at 200 ppm [8] | mortality at 200 ppm [9] | percent control (mortality, anti-feedant effect or growth inhibition) at 200 ppm [10] | percent effect (mortality or growth inhibition) at 200 ppm [11]

CCS(=O)(=O)c1c(N2Cc3ncc(C(F)(F)F)cc3C2=O)nc2cc(C)ccn12 [Compound P23, 6-(3-ethylsulfonyl-7-methyl-imidazo[1,2-a]pyridin-2-yl)-3-(trifluoromethyl)-7H-pyrrolo[3,4-b]pyridin-5-one]
≥ 80%: percent effect (mortality or growth inhibition) at 200 ppm [1] | percent control (mortality, anti-feedant effect or growth inhibition) at 200 ppm [3] | mortality at 200 ppm [4] | percent effect (mortality or growth inhibition) at 200 ppm [6] | mortality at 24 ppm [12] | percent control (mortality, anti-feedant effect or growth inhibition) at 200 ppm [10]

CCS(=O)(=O)c1c(N2Cc3ncc(C(F)(F)F)cc3C2=O)nc2ccc(C(C)(C)C#N)cn12 [Compound P35, 2-[3-ethylsulfonyl-2-[5-oxo-3-(trifluoromethyl)-7H-pyrrolo[3,4-b]pyridin-6-yl]imidazo[1,2-a]pyridin-6-yl]-2-methyl-propanenitrile]
≥ 80%: percent effect (mortality or growth inhibition) at 200 ppm [1] | mortality at 200 ppm [2] | percent control (mortality, anti-feedant effect or growth inhibition) at 200 ppm [3] | mortality at 200 ppm [4] | percent effect (mortality or growth inhibition) at 3 ppm [5] | percent effect (mortality or growth inhibition) at 200 ppm [6] | percent effect (mortality or growth inhibition) at 12.5 ppm [7] | mortality at 200 ppm [8] | mortality at 200 ppm [9] | percent control (mortality, anti-feedant effect or growth inhibition) at 200 ppm [10] | percent effect (mortality or growth inhibition) at 200 ppm [11]
